Entries after “also recorded” stand apart in the source; their conditions may differ.
Assays:
human NTPDase1 = molecular target: T1, human NTPDase1 (Homo sapiens, UniProt P49961); experiment: Hydrolysis by NTPDase1; format: biochemical; conditions: 100 μM substrate; relative to ATP hydrolysis (100%)
T1 sequence (P49961 1-510): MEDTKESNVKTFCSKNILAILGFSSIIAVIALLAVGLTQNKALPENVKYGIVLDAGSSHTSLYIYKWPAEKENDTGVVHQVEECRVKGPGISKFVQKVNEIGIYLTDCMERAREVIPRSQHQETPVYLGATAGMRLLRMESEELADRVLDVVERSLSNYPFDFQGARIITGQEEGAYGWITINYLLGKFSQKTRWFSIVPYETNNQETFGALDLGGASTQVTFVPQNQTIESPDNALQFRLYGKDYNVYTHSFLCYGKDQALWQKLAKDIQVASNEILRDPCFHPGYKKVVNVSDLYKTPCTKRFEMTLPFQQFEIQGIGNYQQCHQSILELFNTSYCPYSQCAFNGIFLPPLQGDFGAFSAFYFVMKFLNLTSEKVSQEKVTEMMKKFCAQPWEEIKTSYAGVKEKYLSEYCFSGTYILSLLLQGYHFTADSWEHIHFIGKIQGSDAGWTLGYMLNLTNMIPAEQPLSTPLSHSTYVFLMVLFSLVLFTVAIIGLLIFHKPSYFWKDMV

human NTPDase2 = molecular target: T2, human NTPDase2 (Homo sapiens, UniProt Q9Y5L3); experiment: Hydrolysis by NTPDase2; format: biochemical; conditions: 100 μM substrate; relative to ATP hydrolysis (100%)
T2 sequence (Q9Y5L3 1-495): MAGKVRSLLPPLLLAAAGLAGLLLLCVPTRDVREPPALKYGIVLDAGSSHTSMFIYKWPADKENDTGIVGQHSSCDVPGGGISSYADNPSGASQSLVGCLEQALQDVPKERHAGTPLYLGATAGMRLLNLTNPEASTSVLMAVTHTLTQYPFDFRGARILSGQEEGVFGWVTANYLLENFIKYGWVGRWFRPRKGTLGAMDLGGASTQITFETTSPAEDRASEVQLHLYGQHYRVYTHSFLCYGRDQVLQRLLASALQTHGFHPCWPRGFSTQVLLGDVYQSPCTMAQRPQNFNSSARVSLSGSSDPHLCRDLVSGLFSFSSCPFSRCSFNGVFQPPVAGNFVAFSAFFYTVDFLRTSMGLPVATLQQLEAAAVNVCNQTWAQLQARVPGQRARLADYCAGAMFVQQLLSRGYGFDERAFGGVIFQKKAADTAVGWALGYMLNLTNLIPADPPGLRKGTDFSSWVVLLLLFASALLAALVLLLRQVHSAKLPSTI

human NTPDase3 = molecular target: T3, human NTPDase3 (Homo sapiens, UniProt O75355); experiment: Hydrolysis by NTPDase3; format: biochemical; conditions: 100 μM substrate; relative to ATP hydrolysis (100%)
T3 sequence (O75355 1-529): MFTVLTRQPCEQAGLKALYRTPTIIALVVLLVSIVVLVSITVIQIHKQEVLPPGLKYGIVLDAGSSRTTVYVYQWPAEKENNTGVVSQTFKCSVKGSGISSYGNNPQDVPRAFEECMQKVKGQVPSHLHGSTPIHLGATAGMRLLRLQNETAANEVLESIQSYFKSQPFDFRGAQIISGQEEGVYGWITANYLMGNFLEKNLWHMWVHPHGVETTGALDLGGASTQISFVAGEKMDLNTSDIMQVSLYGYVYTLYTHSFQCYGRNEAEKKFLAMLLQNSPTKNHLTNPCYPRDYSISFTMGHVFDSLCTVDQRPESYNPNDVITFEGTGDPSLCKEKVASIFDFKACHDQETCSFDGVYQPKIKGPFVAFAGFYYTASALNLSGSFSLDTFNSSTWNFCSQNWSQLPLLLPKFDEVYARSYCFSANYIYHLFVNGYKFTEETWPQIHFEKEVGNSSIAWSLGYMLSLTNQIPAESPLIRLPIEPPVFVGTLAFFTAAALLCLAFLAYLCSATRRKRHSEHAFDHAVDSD

human NPP1 = molecular target: T4, human NPP1 (Homo sapiens, UniProt P22413); experiment: Hydrolysis by NPP1; format: biochemical; conditions: 100 μM substrate; relative to pnp-TMP hydrolysis (100%)
T4 sequence (P22413 1-925): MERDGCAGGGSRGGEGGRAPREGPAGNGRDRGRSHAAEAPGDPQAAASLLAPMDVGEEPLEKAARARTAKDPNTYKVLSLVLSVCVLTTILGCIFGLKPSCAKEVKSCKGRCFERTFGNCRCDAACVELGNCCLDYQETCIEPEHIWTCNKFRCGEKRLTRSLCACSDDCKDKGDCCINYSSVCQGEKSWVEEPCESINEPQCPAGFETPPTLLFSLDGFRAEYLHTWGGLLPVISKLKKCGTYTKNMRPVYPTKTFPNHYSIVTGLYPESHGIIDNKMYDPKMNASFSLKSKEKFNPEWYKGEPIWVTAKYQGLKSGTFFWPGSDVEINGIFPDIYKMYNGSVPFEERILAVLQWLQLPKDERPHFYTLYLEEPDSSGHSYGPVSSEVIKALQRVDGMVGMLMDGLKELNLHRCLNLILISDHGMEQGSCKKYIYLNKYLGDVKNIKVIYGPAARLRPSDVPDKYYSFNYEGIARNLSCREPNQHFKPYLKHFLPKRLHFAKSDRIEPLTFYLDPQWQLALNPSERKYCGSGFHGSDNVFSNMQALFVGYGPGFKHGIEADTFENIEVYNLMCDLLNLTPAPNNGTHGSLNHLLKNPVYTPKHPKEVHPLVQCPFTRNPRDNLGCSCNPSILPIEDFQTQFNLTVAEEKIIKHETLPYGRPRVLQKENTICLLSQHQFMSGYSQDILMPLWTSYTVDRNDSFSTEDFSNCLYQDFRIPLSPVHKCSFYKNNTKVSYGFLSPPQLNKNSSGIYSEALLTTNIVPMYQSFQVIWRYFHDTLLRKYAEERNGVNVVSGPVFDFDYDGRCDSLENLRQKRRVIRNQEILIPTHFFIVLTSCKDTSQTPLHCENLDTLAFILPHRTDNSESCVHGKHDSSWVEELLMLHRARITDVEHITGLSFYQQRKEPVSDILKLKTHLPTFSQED

turkey P2Y1 receptor = turkey P2Y1 receptor (Meleagris gallopavo, UniProt P49652); format: cell-based; conditions: 1321N1 cell transfectants; for EC50: read-out: EC50 of analogue-induced increase in [Ca2+]i, P2Y1
human P2Y2 receptor = human P2Y2 receptor (Homo sapiens, UniProt P41231); experiment: Increase in [Ca2+]i in 1321N1 astrocytoma cells expressing P2Y2 receptor; format: cell-based; conditions: 1321N1 cell transfectants; for EC50: read-out: EC50 of analogue-induced increase in [Ca2+]i, P2Y2
human P2Y4 receptor = human P2Y4 receptor (Homo sapiens, UniProt P51582); experiment: Increase in [Ca2+]i in 1321N1 astrocytoma cells expressing P2Y4 receptor; format: cell-based; conditions: 1321N1 cell transfectants; for EC50: read-out: EC50 of analogue-induced increase in [Ca2+]i, P2Y4
Chain of human P2Y4 receptor (P51582 whole entry): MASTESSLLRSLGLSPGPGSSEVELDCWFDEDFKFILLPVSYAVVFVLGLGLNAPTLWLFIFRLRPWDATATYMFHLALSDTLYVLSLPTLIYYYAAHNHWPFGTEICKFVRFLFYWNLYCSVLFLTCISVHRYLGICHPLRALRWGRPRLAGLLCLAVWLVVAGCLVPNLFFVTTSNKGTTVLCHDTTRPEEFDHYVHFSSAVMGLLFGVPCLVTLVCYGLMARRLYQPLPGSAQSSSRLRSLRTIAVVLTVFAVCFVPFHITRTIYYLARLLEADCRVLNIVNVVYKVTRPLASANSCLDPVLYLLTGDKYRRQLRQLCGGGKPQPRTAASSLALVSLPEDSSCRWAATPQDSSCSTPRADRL

Chain of turkey P2Y1 receptor (P49652 whole entry): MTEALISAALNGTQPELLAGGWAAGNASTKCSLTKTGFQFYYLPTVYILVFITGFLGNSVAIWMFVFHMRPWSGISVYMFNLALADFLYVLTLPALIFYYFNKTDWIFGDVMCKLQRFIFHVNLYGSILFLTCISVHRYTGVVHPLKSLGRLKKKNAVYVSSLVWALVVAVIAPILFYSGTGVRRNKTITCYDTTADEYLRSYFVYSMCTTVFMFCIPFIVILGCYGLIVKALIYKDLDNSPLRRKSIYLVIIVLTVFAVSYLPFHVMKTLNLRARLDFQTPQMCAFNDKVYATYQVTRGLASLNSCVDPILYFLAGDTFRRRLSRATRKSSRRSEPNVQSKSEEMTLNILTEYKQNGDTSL
Chain of human P2Y2 receptor (P41231 whole entry): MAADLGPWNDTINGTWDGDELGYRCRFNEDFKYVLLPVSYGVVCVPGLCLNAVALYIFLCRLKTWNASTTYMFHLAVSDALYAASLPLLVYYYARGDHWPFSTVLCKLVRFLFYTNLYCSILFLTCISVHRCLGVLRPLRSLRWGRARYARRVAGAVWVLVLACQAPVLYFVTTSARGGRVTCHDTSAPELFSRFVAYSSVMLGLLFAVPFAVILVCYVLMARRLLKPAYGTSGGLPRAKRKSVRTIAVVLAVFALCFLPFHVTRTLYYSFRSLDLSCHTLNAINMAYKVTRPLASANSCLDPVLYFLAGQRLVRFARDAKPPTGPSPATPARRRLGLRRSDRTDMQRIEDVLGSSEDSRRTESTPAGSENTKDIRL

SMILES	Relative activity of NTPDase1 (human NTPDase1) [%]	Relative activity of NTPDase2 (human NTPDase2) [%]	Relative activity of NTPDase3 (human NTPDase3) [%]	Relative activity of NPP1 (human NPP1) [%]	agonist activity at P2Y1R (turkey P2Y1 receptor)	EC50 (turkey P2Y1 receptor) [µM]	agonist activity at P2Y2R (human P2Y2 receptor)	EC50 (human P2Y2 receptor) [µM]	agonist activity at P2Y4R (human P2Y4 receptor)	EC50 (human P2Y4 receptor) [µM]
[BH3-][P+](O)(OC[C@H]1O[C@@H](n2cnc3c(N)nc(SC)nc32)[C@H](O)[C@@H]1O)OP(=O)(O)CP(=O)(O)O (single isomer, unassigned) [4A, 2-MeS–adenosine-5′-O-(α-boranotriphosphate)-β,γ-CH2]	<1	1.0 ± 0.1	2.0 ± 0.26	0	insignificant activities; also recorded: practically inactive; also recorded: no activity	> 100	insignificant activities; also recorded: inactivity	> 100	insignificant activities	> 100
[BH3-][P+](O)(OC[C@H]1O[C@@H](n2cnc3c(N)ncnc32)[C@H](O)[C@@H]1O)OP(=O)(O)CP(=O)(O)O (single isomer, unassigned) [3A, Adenosine-5′-O-(α-boranotriphosphate)-β,γ-CH2]	1.0 ± 2.1	1.0 ± 0.2	0	0	insignificant activities; also recorded: practically inactive	> 100	insignificant activities	> 100	insignificant activities	> 100
[BH3-][P+](O)(OC[C@H]1O[C@@H](n2cnc3c(N)ncnc32)[C@H](O)[C@@H]1O)OP(=O)(O)CP(=O)(O)O (single isomer, unassigned) [3B, Adenosine-5′-O-(α-boranotriphosphate)-β,γ-CH2]	0	0	6.0 ± 0.16	4.0 ± 0.12	insignificant activities	> 100	insignificant activities	> 100	insignificant activities	> 100

Source: publication PMC4354951 (European journal of medicinal chemistry, 2008)
